Converted amounts (≈) assume the structure as drawn.
Tests used:
Format in all cases: cell-based
[1] = system: Gram-negative and Gram-positive bacterial pathogens; assay: MIC on a range of bacterial pathogens (summary statement); conditions: summary of Table 3, in words
Procedure: (§1) The minimum inhibition concentration (MIC) of zeamine I was carried out according to the NCCLS guidelines (4). Briefly, 96-well plates containing 2-fold serial dilutions of zeamine I and control antibiotics were prepared with LB liquid medium. The fresh overnight LB cultures of tested bacterial strains were then inoculated to the above plates after dilution to yield a final density of 10^6 CFU/ml and 10^7 CFU/ml, respectively. The plates were then incubated with gentle shaking at 30° C. or 37° C. depending on the preferred growth temperature of the tested strains. After 24 h, the plates were collected to measure OD600. The MIC was defined as the lowest concentration of the antibiotic allowing no visible growth. The MIC assay was repeated twice each time with triplicate.
The minimum inhibition concentration (MIC) of zeamine I was determined on a range of bacterial pathogens. […] In contrast, a high dosage of ampicillin, which is a commonly used antibiotic, was required to inhibit the growth of these bacterial pathogens.

[2] = system: Pseudomonas aeruginosa PAO1; assay: MIC determination (NCCLS, 96-well, LB); conditions: 1 × 10^6 CFU/ml in LB, 30° C., 24 h
Procedure: as §1

[3] = system: Klebsiella pneumonia; assay: MIC determination (NCCLS, 96-well, LB); conditions: Klebsiella pneumoniae, 1 × 10^6 CFU/ml in LB, 30° C., 24 h
Procedure: as §1

[4] = system: E. coli CFT073; assay: MIC determination (NCCLS, 96-well, LB); conditions: Escherichia coli, 1 × 10^6 CFU/ml in LB, 30° C., 24 h
Procedure: as §1

[5] = system: Burkholderia cepacia H111; assay: MIC determination (NCCLS, 96-well, LB); conditions: 1 × 10^6 CFU/ml in LB, 30° C., 24 h
Procedure: as §1

[6] = system: Salmonella enterica; assay: MIC determination (NCCLS, 96-well, LB); conditions: 24 h
Procedure: as §1

[7] = system: Burkholderia cepacia J2315; assay: MIC determination (NCCLS, 96-well, LB); conditions: 1 × 10^6 CFU/ml in LB, 30° C., 24 h
Procedure: as §1

[8] = system: Staphylococcus aureus ATCC 25531; assay: MIC determination (NCCLS, 96-well, LB); conditions: ATCC25531, 1 × 10^6 CFU/ml in LB, 30° C., 24 h
Procedure: as §1

[9] = system: Bacillus cereus XJ8; assay: MIC determination (NCCLS, 96-well, LB); conditions: 1 × 10^6 CFU/ml in LB, 30° C., 24 h
Procedure: as §1

[10] = system: Pseudomonas aeruginosa PA14; assay: MIC determination (NCCLS, 96-well, LB); conditions: 1 × 10^6 CFU/ml in LB, 30° C., 24 h
Procedure: as §1

[11] = system: E. coli DH5α; assay: MIC determination (NCCLS, 96-well, LB); conditions: Escherichia coli, 1 × 10^6 CFU/ml in LB, 30° C., 24 h
Procedure: as §1

[12] = system: Enterobacter aerogenes ATCC 13048; assay: MIC determination (NCCLS, 96-well, LB); conditions: Klebsiella aerogenes, ATCC13048, 1 × 10^6 CFU/ml in LB, 30° C., 24 h
Procedure: as §1

[13] = system: Aeromonas hydrophila; assay: MIC determination (NCCLS, 96-well, LB); conditions: 1 × 10^6 CFU/ml in LB, 30° C., 24 h
Procedure: as §1

[14] = system: Staphylococcus aureus BBA-41; assay: MIC determination (NCCLS, 96-well, LB); conditions: BBA41, 1 × 10^6 CFU/ml in LB, 30° C., 24 h
Procedure: as §1

[15] = system: Escherichia coli strain DH5α; assay: Antibiotic bioassay (agar well inhibition zone); conditions: 20 microliters of fraction in 4-mm wells, 37° C. overnight
Procedure: The bactericidal activity was assayed using Escherichia coli strain DH5α following the method described previously by Zhang et al. (Zhang et al. (1998). Factors affecting biosynthesis by Xanthomonas albilineans of albicidin antibiotics and phytotoxins. J. Appl. Microbiol. 85: 1023-1028). Briefly, an overnight LB culture of strain DH5α was diluted by 10-fold in sterilized water, and 100 microliters of the dilute were added to 5 ml of 1% agarose solution, which was autoclaved with temperature being maintained at 50° C. The bioassay plate was prepared by adding the mixture onto a plate containing 20 ml LB agar. Bioassay was conducted by adding 20 microliters of bacterial supernatants or fractions to the 4-mm diameter wells in bioassay plate. The plate was incubated at 37° C. overnight before examination of inhibition zone.

| SMILES | dosage required to inhibit the growth of these bacterial pathogens [1] | MIC [2] | MIC [3] | MIC [4] | MIC [5] | MIC [6] | MIC [7] | MIC [8] | MIC [9] | MIC [10] | MIC [11] | MIC [12] | MIC [13] | MIC [14] | antibiotic activity of HPLC fraction in bioassay [15] |
| --- | --- | --- | --- | --- | --- | --- | --- | --- | --- | --- | --- | --- | --- | --- | --- |
| CC1(C)S[C@@H]2[C@H](NC(=O)[C@H](N)c3ccccc3)C(=O)N2[C@H]1C(=O)O [Ampicillin] | high dosage | 400 µg/mL (≈ 1140 µM) | > 800 µg/mL | 25 µg/mL (≈ 71.5 µM) | > 800 µg/mL | 12.5 µg/mL (≈ 35.8 µM) | > 800 µg/mL | 15.6 µg/mL (≈ 44.6 µM) | 100 µg/mL (≈ 286 µM) | 800 µg/mL (≈ 2290 µM) | 25 µg/mL (≈ 71.5 µM) | > 800 µg/mL | 125 µg/mL (≈ 358 µM) | > 500 µg/mL | – |
| CN(C)[C@@H]1C(O)=C(C(N)=O)C(=O)[C@@]2(O)C(O)=C3C(=O)c4c(O)cccc4[C@@](C)(O)[C@H]3C[C@@H]12 [Tetracycline] | – | – | 6.2 µg/mL (≈ 14 µM) | 0.75 µg/mL (≈ 1.69 µM) | 12.5 µg/mL (≈ 28.1 µM) | – | 50 µg/mL (≈ 113 µM) | 3.1 µg/mL (≈ 6.98 µM) | 6.2 µg/mL (≈ 14 µM) | 12.5 µg/mL (≈ 28.1 µM) | 3.1 µg/mL (≈ 6.98 µM) | 3.1 µg/mL (≈ 6.98 µM) | 6.2 µg/mL (≈ 14 µM) | 6.2 µg/mL (≈ 14 µM) | – |
| NC[C@H]1O[C@H](O[C@H]2[C@H](O)[C@@H](O[C@H]3O[C@H](CO)[C@@H](O)[C@H](N)[C@H]3O)[C@H](N)C[C@@H]2N)[C@H](O)[C@@H](O)[C@@H]1O [Kanamycin] | – | 200 µg/mL (≈ 413 µM) | 3.1 µg/mL (≈ 6.4 µM) | 6.2 µg/mL (≈ 12.8 µM) | 6.2 µg/mL (≈ 12.8 µM) | 12.5 µg/mL (≈ 25.8 µM) | 400 µg/mL (≈ 826 µM) | 6.2 µg/mL (≈ 12.8 µM) | 3.1 µg/mL (≈ 6.4 µM) | 200 µg/mL (≈ 413 µM) | 10 µg/mL (≈ 20.6 µM) | 3.1 µg/mL (≈ 6.4 µM) | 25 µg/mL (≈ 51.6 µM) | 12.5 µg/mL (≈ 25.8 µM) | – |
| CCCCCC(N)CCCCCCCC(N)CCCCCCCC(N)CCCCCCCC(N)CCCCCCCC(O)CCN (stereo not drawn) [Zeamine II] | – | – | – | – | – | – | – | – | – | – | – | – | – | – | minor active fraction |
